Legend:
HUVEC = assay: Antiangiogenic activity in HUVEC assessed as inhibition of cell proliferation; assay type: functional, cell-based; conditions: Homo sapiens
MDA-MB-231 = assay: Antiproliferative activity against human MDA-MB-231 cells; assay type: functional, cell-based

IC50 (MDA-MB-231)	SMILES	IC50 (HUVEC)
8.98 µM	COc1cc2c(cc1C#N)CC[C@@H]1[C@@H]2CC[C@]2(C)[C@@H](O)CC[C@@H]12	2.65 µM
2.36 µM	COc1cc2c(cc1C(N)=O)CC[C@@H]1[C@@H]2CC[C@]2(C)[C@@H](O)CC[C@@H]12	2.59 µM
9.47 µM	COc1cc2c(cc1NS(N)(=O)=O)CC[C@@H]1[C@@H]2CC[C@]2(C)[C@@H](O)CC[C@@H]12	3.88 µM
> 100 µM	COC(=O)c1cc2c(cc1OC)[C@H]1CC[C@]3(C)[C@@H](O)CC[C@H]3[C@@H]1CC2	> 100 µM
46.9 µM	CCc1cc2c(cc1OC)[C@H]1CC[C@]3(C)[C@@H](O)CC[C@H]3[C@@H]1CC2	5.44 µM
3.95 µM	COc1cc2c(cc1NC(C)=O)CC[C@@H]1[C@@H]2CC[C@]2(C)[C@@H](O)CC[C@@H]12	1.65 µM
27.5 µM	COc1cc2c(cc1Br)CC[C@@H]1[C@@H]2CC[C@]2(C)[C@@H](O)CC[C@@H]12	9.13 µM
55.6 µM	COc1cc2c(cc1CO)CC[C@@H]1[C@@H]2CC[C@]2(C)[C@@H](O)CC[C@@H]12	28.2 µM
2.48 µM	COc1cc2c(cc1N)CC[C@@H]1[C@@H]2CC[C@]2(C)[C@@H](O)CC[C@@H]12	2.32 µM
0.78 µM	COc1cc2c(cc1NC=O)CC[C@@H]1[C@@H]2CC[C@]2(C)[C@@H](O)CC[C@@H]12	0.07 µM
0.65 µM	COc1cc2c(cc1NC(N)=O)CC[C@@H]1[C@@H]2CC[C@]2(C)[C@@H](O)CC[C@@H]12	0.59 µM
> 100 µM	COc1cc2c(cc1NS(=O)(=O)C(F)(F)F)CC[C@@H]1[C@@H]2CC[C@]2(C)[C@@H](O)CC[C@@H]12	46.2 µM
2.94 µM	COc1cc2c(cc1F)CC[C@@H]1[C@@H]2CC[C@]2(C)[C@@H](O)CC[C@@H]12	2.1 µM
> 100 µM	COc1cc2c(cc1C(=O)O)CC[C@@H]1[C@@H]2CC[C@]2(C)[C@@H](O)CC[C@@H]12	> 100 µM
17.6 µM	COC(=O)Nc1cc2c(cc1OC)[C@H]1CC[C@]3(C)[C@@H](O)CC[C@H]3[C@@H]1CC2	5.92 µM
> 10 µM	COc1cc2c(cc1C(=O)N(C)C)CC[C@@H]1[C@@H]2CC[C@]2(C)[C@@H](O)CC[C@@H]12	> 10 µM
26.9 µM	COc1cc2c(cc1Cl)CC[C@@H]1[C@@H]2CC[C@]2(C)[C@@H](O)CC[C@@H]12	7.45 µM
56.2 µM	COc1cc2c(cc1S)CC[C@@H]1[C@@H]2CC[C@]2(C)[C@@H](O)CC[C@@H]12	12.9 µM
103 µM	COc1cc2c(cc1N(C)C)CC[C@@H]1[C@@H]2CC[C@]2(C)[C@@H](O)CC[C@@H]12	2.82 µM
62 µM	COc1ccc2c(c1)[C@H]1CC[C@]3(C)[C@@H](O)CC[C@H]3[C@@H]1CC2	22.1 µM
0.62 µM	COc1cc2c(cc1NC#N)CC[C@@H]1[C@@H]2CC[C@]2(C)[C@@H](O)CC[C@@H]12	0.47 µM
21.4 µM	COc1cc2c(cc1OS(=O)(=O)C(F)(F)F)CC[C@@H]1[C@@H]2CC[C@]2(C)[C@@H](O)CC[C@@H]12	3.27 µM
> 100 µM	CNC(=O)c1cc2c(cc1OC)[C@H]1CC[C@]3(C)[C@@H](O)CC[C@H]3[C@@H]1CC2	> 100 µM

SMILES	IC50 (MDA-MB-231)	IC50 (HUVEC)
C=Cc1cc2c(cc1OC)[C@H]1CC[C@]3(C)[C@@H](O)CC[C@H]3[C@@H]1CC2	8.93 µM	1.96 µM
COc1cc2c(cc1OC)[C@H]1CC[C@]3(C)[C@@H](O)CC[C@H]3[C@@H]1CC2	43.7 µM	31.5 µM
